From patent publication US9452217B2, “Methods for potentiating immune response for the treatment of infectious diseases and cancer” (Nitor Therapeutics, priority 2013, dated 2016)

Legend:
human TLR5 = target: T1, human TLR5 (Homo sapiens, UniProt O60602); assay: TLR ligand screening: NF-κB activation (SEAP reporter) in HEK293 cells expressing TLR5; format: cell-based; details: one concentration: NTR001 10 uM, Inosine 100 uM; FIG. 2
T1 construct: expressed in transfected cells; host or cells: HEK293
T1 sequence (O60602 21-858): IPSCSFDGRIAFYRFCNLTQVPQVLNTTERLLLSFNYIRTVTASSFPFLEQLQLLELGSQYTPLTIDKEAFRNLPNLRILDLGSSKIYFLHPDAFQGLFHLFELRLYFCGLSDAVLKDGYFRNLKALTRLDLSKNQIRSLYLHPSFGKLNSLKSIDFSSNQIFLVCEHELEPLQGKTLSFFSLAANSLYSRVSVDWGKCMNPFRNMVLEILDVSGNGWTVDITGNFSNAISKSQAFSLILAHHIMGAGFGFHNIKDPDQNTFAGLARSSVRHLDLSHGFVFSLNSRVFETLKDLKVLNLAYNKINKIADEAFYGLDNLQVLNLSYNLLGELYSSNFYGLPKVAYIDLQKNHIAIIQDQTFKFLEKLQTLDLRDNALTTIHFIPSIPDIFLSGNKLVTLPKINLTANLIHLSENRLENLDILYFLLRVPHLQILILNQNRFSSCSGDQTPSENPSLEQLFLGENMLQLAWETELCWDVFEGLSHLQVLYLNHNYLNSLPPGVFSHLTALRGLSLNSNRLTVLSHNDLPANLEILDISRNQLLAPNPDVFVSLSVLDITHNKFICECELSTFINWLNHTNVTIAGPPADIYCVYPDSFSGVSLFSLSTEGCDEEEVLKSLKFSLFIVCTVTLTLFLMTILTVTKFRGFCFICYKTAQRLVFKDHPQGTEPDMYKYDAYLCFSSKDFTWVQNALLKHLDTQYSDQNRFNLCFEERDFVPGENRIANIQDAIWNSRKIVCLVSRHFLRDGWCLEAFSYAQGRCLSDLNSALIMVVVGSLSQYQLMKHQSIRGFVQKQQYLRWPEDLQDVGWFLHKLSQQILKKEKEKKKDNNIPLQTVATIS
Protocol: (§1) Method: TLR stimulation is tested by assessing NF-κB activation in HEK293 cells expressing a given TLR. The Secreted Embryonic Alkaline Phosphatase (SEAP) reporter is under the control of a promoter inducible by the transcription factor NF-κB. This reporter gene allows the monitoring of signaling through the TLR, based on the activation of NF-κB. The compounds are evaluated at one concentration and compared to control ligands. This step is performed in triplicate.

human TLR9 = target: T2, human TLR9 (Homo sapiens, UniProt Q9NR96); assay: TLR ligand screening: NF-κB activation (SEAP reporter) in HEK293 cells expressing TLR9; format: cell-based; details: one concentration: NTR001 10 uM, Inosine 100 uM; FIG. 2
T2 construct: expressed in transfected cells; host or cells: HEK293
T2 sequence (Q9NR96 26-1032): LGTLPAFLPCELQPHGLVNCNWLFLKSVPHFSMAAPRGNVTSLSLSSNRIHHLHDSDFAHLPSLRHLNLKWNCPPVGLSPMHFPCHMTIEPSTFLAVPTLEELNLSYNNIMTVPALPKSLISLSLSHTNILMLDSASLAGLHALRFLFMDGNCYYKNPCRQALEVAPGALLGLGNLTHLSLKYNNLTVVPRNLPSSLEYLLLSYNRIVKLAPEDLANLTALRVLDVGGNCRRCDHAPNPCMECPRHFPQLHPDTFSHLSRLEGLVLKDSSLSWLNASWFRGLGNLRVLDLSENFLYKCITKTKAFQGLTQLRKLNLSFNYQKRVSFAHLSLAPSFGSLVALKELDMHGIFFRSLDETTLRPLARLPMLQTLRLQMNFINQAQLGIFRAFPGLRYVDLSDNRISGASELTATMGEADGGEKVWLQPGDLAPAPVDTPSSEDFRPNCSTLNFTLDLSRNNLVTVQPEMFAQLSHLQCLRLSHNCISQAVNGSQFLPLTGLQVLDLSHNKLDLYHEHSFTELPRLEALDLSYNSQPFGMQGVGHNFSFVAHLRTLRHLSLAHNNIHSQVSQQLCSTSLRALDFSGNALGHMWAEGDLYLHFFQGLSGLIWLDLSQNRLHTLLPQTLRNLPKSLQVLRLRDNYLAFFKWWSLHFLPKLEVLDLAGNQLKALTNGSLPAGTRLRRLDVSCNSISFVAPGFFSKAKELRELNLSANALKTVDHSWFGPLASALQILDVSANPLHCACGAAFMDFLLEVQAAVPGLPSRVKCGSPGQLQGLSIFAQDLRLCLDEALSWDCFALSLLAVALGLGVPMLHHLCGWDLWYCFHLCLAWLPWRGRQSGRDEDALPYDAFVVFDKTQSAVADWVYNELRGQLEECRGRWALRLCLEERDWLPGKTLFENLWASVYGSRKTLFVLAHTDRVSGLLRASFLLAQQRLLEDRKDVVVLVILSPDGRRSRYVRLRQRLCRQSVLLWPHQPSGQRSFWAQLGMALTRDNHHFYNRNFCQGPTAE
Protocol: as §1

human TLR3 = target: T3, human TLR3 (Homo sapiens, UniProt O15455); assay: TLR ligand screening: NF-κB activation (SEAP reporter) in HEK293 cells expressing TLR3; format: cell-based; details: one concentration: NTR001 10 uM, Inosine 100 uM; FIG. 2
T3 construct: expressed in transfected cells; host or cells: HEK293
T3 sequence (O15455 24-904): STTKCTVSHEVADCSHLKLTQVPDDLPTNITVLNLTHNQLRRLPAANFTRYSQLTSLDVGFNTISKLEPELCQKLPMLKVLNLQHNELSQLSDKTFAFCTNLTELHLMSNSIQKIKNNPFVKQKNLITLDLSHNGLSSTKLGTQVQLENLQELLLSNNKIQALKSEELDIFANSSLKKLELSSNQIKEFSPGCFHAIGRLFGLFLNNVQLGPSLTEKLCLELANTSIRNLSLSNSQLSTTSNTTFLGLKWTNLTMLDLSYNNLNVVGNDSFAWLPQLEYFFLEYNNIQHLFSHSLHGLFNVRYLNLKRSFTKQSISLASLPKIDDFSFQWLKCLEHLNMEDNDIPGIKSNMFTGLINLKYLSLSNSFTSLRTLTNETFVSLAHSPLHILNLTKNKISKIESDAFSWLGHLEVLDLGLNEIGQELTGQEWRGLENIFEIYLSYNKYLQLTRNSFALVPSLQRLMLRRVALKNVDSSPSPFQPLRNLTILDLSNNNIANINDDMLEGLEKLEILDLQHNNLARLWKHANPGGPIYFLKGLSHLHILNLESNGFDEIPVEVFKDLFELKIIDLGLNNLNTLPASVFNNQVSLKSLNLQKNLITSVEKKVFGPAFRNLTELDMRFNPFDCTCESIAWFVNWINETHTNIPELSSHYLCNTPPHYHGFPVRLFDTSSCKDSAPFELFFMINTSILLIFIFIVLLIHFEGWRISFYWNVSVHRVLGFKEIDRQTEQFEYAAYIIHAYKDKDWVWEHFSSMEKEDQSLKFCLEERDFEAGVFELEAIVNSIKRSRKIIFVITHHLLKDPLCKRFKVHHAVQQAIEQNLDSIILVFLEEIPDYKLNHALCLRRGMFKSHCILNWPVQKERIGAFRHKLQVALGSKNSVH
Protocol: as §1

[1] = test system: L. monocytogenes (ATCC Strain35152, hemolytic substrain); assay: Mouse model of L. monocytogenes infection; details: Balb/c mice infected i.v. with 1×10^6 CFU; 30 mg/kg PO or IP, 2 mg/kg drinking water; FIGS. 7 and 9
[2] = test system: immune response to tetanus toxoid vaccine; assay: PNPi as adjuvant in tetanus toxoid vaccine efficacy study (mouse); format: in vivo; details: mice, p.o., ELISA
B16 tumors = assay: Syngeneic mouse melanoma model; format: in vivo, C57BL/6 mice
Protocol: Method: Cancer cells were injected subcutaneously in right flank of each mouse, 1×10^4 cells in 0.1 ml PBS with 20% Matrigel. Treatment with the NTR001 was initiated on day 6 after injection of tumor cells. Tumor volume and survival were recorded every 3-4 days.

Row | Structure (SMILES) | stimulatory effect on human TLR5 (human TLR5) | stimulatory effect on human TLR9 (human TLR9) | stimulatory effect on human TLR3 (human TLR3) | weight loss [1] | serum tetanus toxoid antibody titers compared to the vehicle treated group ([2]; 30 mg/kg (6 days of treatment) and 60 mg/kg (3 days of treatment), day 38, FIG. 3) | serum interferon-g compared to the vehicle treated group ([2]; high dose group 60 mg/kg, day 30, FIG. 4) | tumor volume (B16 tumors; B16 tumors in C57BL/6 mice, treatment from day 6, FIG. 5) | survival (B16 tumors; NTR001 as single agent (30 mg/kg PO week on/off; 5 mg/kg drinking water 28 days), FIG. 6)
1 | OC[C@H]1O[C@@H](n2cnc3c(O)ncnc32)[C@H](O)[C@@H]1O [Inosine] | do not exhibit a stimulatory effect | do not exhibit a stimulatory effect | do not exhibit a stimulatory effect |  |  |  |  | 
2 | O=c1[nH]cnc2c([C@@H]3N[C@H](CO)[C@@H](O)[C@H]3O)c[nH]c12 [NTR001, 7-[(2S,3S,4R,5R)-3,4-dihydroxy-5-(hydroxymethyl)-2-pyrrolidinyl]-1,5-dihydro-4H-pyrrolo [3,2-d]pyrimidin-4-one] | do not exhibit a stimulatory effect | do not exhibit a stimulatory effect | do not exhibit a stimulatory effect | significant decrease in weight loss | significantly elevated | elevated | significant decrease | 0-20%
